Measured values: the NIST ThermoML archive (doi:10.1007/s10765-014-1598-0)

Key:
[1] = wn = mass fraction of the nth substance listed; conditions: Liquid, Parallel plate method
[2] = Liquid, Parallel plate method

O [water] + O=P(O)(O)O
[1], w2 = 0
Conditions	thermal conductivity [W/m/K]
292.04 K, 101 kPa	0.596
292.37 K, 5000 kPa	0.599
292.41 K, 15000 kPa	0.606
301.85 K, 101 kPa	0.612
308.34 K, 101 kPa	0.622
313.16 K, 5000 kPa	0.634
313.35 K, 15000 kPa	0.636
318.33 K, 101 kPa	0.634
327.48 K, 101 kPa	0.645
332.62 K, 15000 kPa	0.657
332.85 K, 5000 kPa	0.656
337.32 K, 101 kPa	0.655
346.93 K, 101 kPa	0.662
351.91 K, 5000 kPa	0.671
353.17 K, 15000 kPa	0.673
356.69 K, 101 kPa	0.668
364.08 K, 5000 kPa	0.679
364.53 K, 15000 kPa	0.682
371.79 K, 101 kPa	0.677
382.36 K, 15000 kPa	0.688
382.41 K, 5000 kPa	0.686
398.77 K, 5000 kPa	0.688
399.64 K, 15000 kPa	0.691

O=P(O)(O)O [phosphoric acid] + O
[1]
Conditions	thermal conductivity [W/m/K]
291.42 K, 5000 kPa, w1 = 0.08	0.568
291.7 K, 15000 kPa, w1 = 0.08	0.578
292.71 K, 101 kPa, w1 = 0.5	0.482
293.15 K, 15000 kPa, w1 = 0.5	0.498
293.16 K, 101 kPa, w1 = 0.08	0.566
293.26 K, 5000 kPa, w1 = 0.5	0.489
294.15 K, 5000 kPa, w1 = 0.155	0.545
294.23 K, 15000 kPa, w1 = 0.155	0.556
294.32 K, 101 kPa, w1 = 0.155	0.529
298.48 K, 101 kPa, w1 = 0.08	0.575
300.86 K, 101 kPa, w1 = 0.5	0.493
303.03 K, 101 kPa, w1 = 0.155	0.545
310.72 K, 5000 kPa, w1 = 0.155	0.568
310.89 K, 15000 kPa, w1 = 0.155	0.58
312.81 K, 15000 kPa, w1 = 0.5	0.525
313.19 K, 5000 kPa, w1 = 0.5	0.516
313.91 K, 101 kPa, w1 = 0.08	0.597
313.94 K, 101 kPa, w1 = 0.155	0.561
314.07 K, 101 kPa, w1 = 0.155	0.563
315.13 K, 101 kPa, w1 = 0.5	0.514
315.16 K, 5000 kPa, w1 = 0.08	0.609
315.18 K, 15000 kPa, w1 = 0.08	0.613
320.54 K, 101 kPa, w1 = 0.08	0.607
321.54 K, 101 kPa, w1 = 0.155	0.571
329.59 K, 101 kPa, w1 = 0.5	0.53
330.24 K, 15000 kPa, w1 = 0.5	0.545
330.25 K, 101 kPa, w1 = 0.155	0.582
330.43 K, 5000 kPa, w1 = 0.5	0.54
332.5 K, 15000 kPa, w1 = 0.155	0.605
332.65 K, 5000 kPa, w1 = 0.155	0.592
334.07 K, 5000 kPa, w1 = 0.08	0.633
334.29 K, 15000 kPa, w1 = 0.08	0.641
339.46 K, 101 kPa, w1 = 0.5	0.538
342.35 K, 101 kPa, w1 = 0.155	0.598
342.83 K, 101 kPa, w1 = 0.08	0.63
343.21 K, 101 kPa, w1 = 0.155	0.599
345.9 K, 101 kPa, w1 = 0.08	0.634
350.37 K, 15000 kPa, w1 = 0.08	0.654
350.49 K, 5000 kPa, w1 = 0.08	0.646
352.63 K, 15000 kPa, w1 = 0.5	0.566
352.82 K, 5000 kPa, w1 = 0.5	0.569
352.88 K, 101 kPa, w1 = 0.155	0.607
353.04 K, 5000 kPa, w1 = 0.155	0.615
353.17 K, 15000 kPa, w1 = 0.155	0.622
354.94 K, 101 kPa, w1 = 0.5	0.55
355.76 K, 101 kPa, w1 = 0.08	0.642
360.16 K, 101 kPa, w1 = 0.155	0.613
360.21 K, 101 kPa, w1 = 0.155	0.614
363.17 K, 5000 kPa, w1 = 0.5	0.564
363.2 K, 15000 kPa, w1 = 0.5	0.572
364.06 K, 15000 kPa, w1 = 0.155	0.632
364.17 K, 5000 kPa, w1 = 0.155	0.626
364.98 K, 15000 kPa, w1 = 0.08	0.666
365.14 K, 5000 kPa, w1 = 0.08	0.667
369.33 K, 101 kPa, w1 = 0.08	0.65
370.07 K, 101 kPa, w1 = 0.155	0.618
372.13 K, 101 kPa, w1 = 0.5	0.56
380.77 K, 15000 kPa, w1 = 0.08	0.673
380.93 K, 5000 kPa, w1 = 0.08	0.669
383.41 K, 15000 kPa, w1 = 0.5	0.58
383.52 K, 5000 kPa, w1 = 0.5	0.575
385.14 K, 15000 kPa, w1 = 0.155	0.64
385.31 K, 5000 kPa, w1 = 0.155	0.636
397.89 K, 5000 kPa, w1 = 0.155	0.635
399.66 K, 15000 kPa, w1 = 0.5	0.583
399.84 K, 15000 kPa, w1 = 0.08	0.677
400.05 K, 5000 kPa, w1 = 0.08	0.672
400.07 K, 15000 kPa, w1 = 0.155	0.642
400.18 K, 5000 kPa, w1 = 0.5	0.58

O [water]
[2]
Conditions	thermal conductivity [W/m/K]
292.04 K, 101 kPa	0.596
292.37 K, 5000 kPa	0.599
292.41 K, 15000 kPa	0.606
301.85 K, 101 kPa	0.612
308.34 K, 101 kPa	0.622
313.16 K, 5000 kPa	0.634
313.35 K, 15000 kPa	0.636
318.33 K, 101 kPa	0.634
327.48 K, 101 kPa	0.645
332.62 K, 15000 kPa	0.657
332.85 K, 5000 kPa	0.656
337.32 K, 101 kPa	0.655
346.93 K, 101 kPa	0.662
351.91 K, 5000 kPa	0.671
353.17 K, 15000 kPa	0.673
356.69 K, 101 kPa	0.668
364.08 K, 5000 kPa	0.679
364.53 K, 15000 kPa	0.682
371.79 K, 101 kPa	0.677
382.36 K, 15000 kPa	0.688
382.41 K, 5000 kPa	0.686
398.77 K, 5000 kPa	0.688
399.64 K, 15000 kPa	0.691
